Data from ChEMBL document CHEMBL3046672, “Synthesis and bioevaluation of Schiff and Mannich bases of isatin derivatives with 4-amino-5-benzyl-2,4-dihydro-3H-1,2,4-triazole-3-thione” (2012).

System: Pseudomonas aeruginosa
Test: Antibacterial activity against Pseudomonas aeruginosa at 50 ug/ml
Format: functional
Details: read-out: DIZ

SMILES | zone of inhibition at 50 µg/mL [mm]
O=C1/C(=N\n2c(Cc3ccccc3)n[nH]c2=S)c2cc(Br)ccc2N1CN1CCOCC1 | 10
O=C1Nc2ccccc2/C1=N/n1c(Cc2ccccc2)n[nH]c1=S | 13
O=C1Nc2ccc(Cl)cc2/C1=N/n1c(Cc2ccccc2)n[nH]c1=S | 9
O=C1/C(=N\n2c(Cc3ccccc3)n[nH]c2=S)c2ccccc2N1CN1CCCCC1 | 10
O=C1/C(=N\n2c(Cc3ccccc3)n[nH]c2=S)c2cc(Cl)ccc2N1CN1CCCCC1 | 10

System: Pseudomonas aeruginosa
Test: Antibacterial activity against Pseudomonas aeruginosa at 100 ug/ml
Format: functional
Details: read-out: DIZ

SMILES | zone of inhibition at 100 µg/mL [mm]
O=C1/C(=N\n2c(Cc3ccccc3)n[nH]c2=S)c2cc(Br)ccc2N1CN1CCOCC1 | 15
O=C1Nc2ccccc2/C1=N/n1c(Cc2ccccc2)n[nH]c1=S | 16
O=C1Nc2ccc(Cl)cc2/C1=N/n1c(Cc2ccccc2)n[nH]c1=S | 13
O=C1/C(=N\n2c(Cc3ccccc3)n[nH]c2=S)c2ccccc2N1CN1CCCCC1 | 16
O=C1/C(=N\n2c(Cc3ccccc3)n[nH]c2=S)c2cc(Cl)ccc2N1CN1CCCCC1 | 15

System: Pseudomonas aeruginosa
Test: Antibacterial activity against Pseudomonas aeruginosa at 200 ug/ml
Format: functional
Details: read-out: DIZ

SMILES | zone of inhibition at 200 µg/mL [mm]
O=C(O)c1cn(C2CC2)c2cc(N3CCNCC3)c(F)cc2c1=O [CIPROFLOXACIN] | 28
O=C1/C(=N\n2c(Cc3ccccc3)n[nH]c2=S)c2cc(Br)ccc2N1CN1CCOCC1 | 24
O=C1Nc2ccccc2/C1=N/n1c(Cc2ccccc2)n[nH]c1=S | 24
O=C1Nc2ccc(Cl)cc2/C1=N/n1c(Cc2ccccc2)n[nH]c1=S | 25
O=C1/C(=N\n2c(Cc3ccccc3)n[nH]c2=S)c2ccccc2N1CN1CCCCC1 | 20
O=C1/C(=N\n2c(Cc3ccccc3)n[nH]c2=S)c2cc(Cl)ccc2N1CN1CCCCC1 | 21

System: Escherichia coli
Test: Antibacterial activity against Escherichia coli at 50 ug/ml
Format: functional
Details: read-out: DIZ

SMILES | zone of inhibition at 50 µg/mL [mm]
O=C1/C(=N\n2c(Cc3ccccc3)n[nH]c2=S)c2cc(Br)ccc2N1CN1CCOCC1 | 9
O=C1Nc2ccccc2/C1=N/n1c(Cc2ccccc2)n[nH]c1=S | 12
O=C1Nc2ccc(Cl)cc2/C1=N/n1c(Cc2ccccc2)n[nH]c1=S | 11
O=C1/C(=N\n2c(Cc3ccccc3)n[nH]c2=S)c2ccccc2N1CN1CCCCC1 | 11
O=C1/C(=N\n2c(Cc3ccccc3)n[nH]c2=S)c2cc(Cl)ccc2N1CN1CCCCC1 | 10

System: Escherichia coli
Test: Antibacterial activity against Escherichia coli at 100 ug/ml
Format: functional
Details: read-out: DIZ

SMILES | zone of inhibition at 100 µg/mL [mm]
O=C1/C(=N\n2c(Cc3ccccc3)n[nH]c2=S)c2cc(Br)ccc2N1CN1CCOCC1 | 16
O=C1Nc2ccccc2/C1=N/n1c(Cc2ccccc2)n[nH]c1=S | 19
O=C1Nc2ccc(Cl)cc2/C1=N/n1c(Cc2ccccc2)n[nH]c1=S | 18
O=C1/C(=N\n2c(Cc3ccccc3)n[nH]c2=S)c2ccccc2N1CN1CCCCC1 | 18
O=C1/C(=N\n2c(Cc3ccccc3)n[nH]c2=S)c2cc(Cl)ccc2N1CN1CCCCC1 | 16

System: Escherichia coli
Test: Antibacterial activity against Escherichia coli at 200 ug/ml
Format: functional
Details: read-out: DIZ

SMILES | zone of inhibition at 200 µg/mL [mm]
O=C(O)c1cn(C2CC2)c2cc(N3CCNCC3)c(F)cc2c1=O [CIPROFLOXACIN] | 30
O=C1/C(=N\n2c(Cc3ccccc3)n[nH]c2=S)c2cc(Br)ccc2N1CN1CCOCC1 | 24
O=C1Nc2ccccc2/C1=N/n1c(Cc2ccccc2)n[nH]c1=S | 23
O=C1Nc2ccc(Cl)cc2/C1=N/n1c(Cc2ccccc2)n[nH]c1=S | 27
O=C1/C(=N\n2c(Cc3ccccc3)n[nH]c2=S)c2ccccc2N1CN1CCCCC1 | 23
O=C1/C(=N\n2c(Cc3ccccc3)n[nH]c2=S)c2cc(Cl)ccc2N1CN1CCCCC1 | 25

System: Staphylococcus aureus
Test: Antibacterial activity against Staphylococcus aureus at 200 ug/ml
Format: functional
Details: read-out: DIZ

SMILES | zone of inhibition at 200 µg/mL [mm]
O=C(O)c1cn(C2CC2)c2cc(N3CCNCC3)c(F)cc2c1=O [CIPROFLOXACIN] | 26
O=C1/C(=N\n2c(Cc3ccccc3)n[nH]c2=S)c2cc(Br)ccc2N1CN1CCOCC1 | 20
O=C1Nc2ccccc2/C1=N/n1c(Cc2ccccc2)n[nH]c1=S | 22
O=C1Nc2ccc(Cl)cc2/C1=N/n1c(Cc2ccccc2)n[nH]c1=S | 23
O=C1/C(=N\n2c(Cc3ccccc3)n[nH]c2=S)c2ccccc2N1CN1CCCCC1 | 20
O=C1/C(=N\n2c(Cc3ccccc3)n[nH]c2=S)c2cc(Cl)ccc2N1CN1CCCCC1 | 20

System: Staphylococcus aureus
Test: Antibacterial activity against Staphylococcus aureus at 100 ug/ml
Format: functional
Details: read-out: DIZ

SMILES | zone of inhibition at 100 µg/mL [mm]
O=C1/C(=N\n2c(Cc3ccccc3)n[nH]c2=S)c2cc(Br)ccc2N1CN1CCOCC1 | 13
O=C1Nc2ccccc2/C1=N/n1c(Cc2ccccc2)n[nH]c1=S | 16
O=C1Nc2ccc(Cl)cc2/C1=N/n1c(Cc2ccccc2)n[nH]c1=S | 11
O=C1/C(=N\n2c(Cc3ccccc3)n[nH]c2=S)c2ccccc2N1CN1CCCCC1 | 14
O=C1/C(=N\n2c(Cc3ccccc3)n[nH]c2=S)c2cc(Cl)ccc2N1CN1CCCCC1 | 12

System: Aspergillus niger
Test: Antifungal activity against Aspergillus niger at 200 ug/ml
Format: functional
Details: read-out: DIZ

SMILES | zone of inhibition at 200 µg/mL [mm]
OC(Cn1cncn1)(Cn1cncn1)c1ccc(F)cc1F [FLUCONAZOLE] | 18
O=C1/C(=N\n2c(Cc3ccccc3)n[nH]c2=S)c2cc(Br)ccc2N1CN1CCOCC1 | 12
O=C1Nc2ccccc2/C1=N/n1c(Cc2ccccc2)n[nH]c1=S | 14
O=C1Nc2ccc(Cl)cc2/C1=N/n1c(Cc2ccccc2)n[nH]c1=S | 12
O=C1/C(=N\n2c(Cc3ccccc3)n[nH]c2=S)c2ccccc2N1CN1CCCCC1 | 13
O=C1/C(=N\n2c(Cc3ccccc3)n[nH]c2=S)c2cc(Cl)ccc2N1CN1CCCCC1 | 15

System: Staphylococcus aureus
Test: Antibacterial activity against Staphylococcus aureus at 50 ug/ml
Format: functional
Details: read-out: DIZ

SMILES | zone of inhibition at 50 µg/mL [mm]
O=C1/C(=N\n2c(Cc3ccccc3)n[nH]c2=S)c2cc(Br)ccc2N1CN1CCOCC1 | 9
O=C1Nc2ccccc2/C1=N/n1c(Cc2ccccc2)n[nH]c1=S | 10
O=C1/C(=N\n2c(Cc3ccccc3)n[nH]c2=S)c2ccccc2N1CN1CCCCC1 | 9
O=C1/C(=N\n2c(Cc3ccccc3)n[nH]c2=S)c2cc(Cl)ccc2N1CN1CCCCC1 | 9

System: Bacillus subtilis
Test: Antibacterial activity against Bacillus subtilis at 200 ug/ml
Format: functional
Details: read-out: DIZ

SMILES | zone of inhibition at 200 µg/mL [mm]
O=C(O)c1cn(C2CC2)c2cc(N3CCNCC3)c(F)cc2c1=O [CIPROFLOXACIN] | 25
O=C1/C(=N\n2c(Cc3ccccc3)n[nH]c2=S)c2cc(Br)ccc2N1CN1CCOCC1 | 21
O=C1Nc2ccccc2/C1=N/n1c(Cc2ccccc2)n[nH]c1=S | 20
O=C1Nc2ccc(Cl)cc2/C1=N/n1c(Cc2ccccc2)n[nH]c1=S | 20
O=C1/C(=N\n2c(Cc3ccccc3)n[nH]c2=S)c2ccccc2N1CN1CCCCC1 | 20
O=C1/C(=N\n2c(Cc3ccccc3)n[nH]c2=S)c2cc(Cl)ccc2N1CN1CCCCC1 | 22

System: Bacillus subtilis
Test: Antibacterial activity against Bacillus subtilis at 100 ug/ml
Format: functional
Details: read-out: DIZ

SMILES | zone of inhibition at 100 µg/mL [mm]
O=C1/C(=N\n2c(Cc3ccccc3)n[nH]c2=S)c2cc(Br)ccc2N1CN1CCOCC1 | 12
O=C1Nc2ccccc2/C1=N/n1c(Cc2ccccc2)n[nH]c1=S | 15
O=C1Nc2ccc(Cl)cc2/C1=N/n1c(Cc2ccccc2)n[nH]c1=S | 14
O=C1/C(=N\n2c(Cc3ccccc3)n[nH]c2=S)c2ccccc2N1CN1CCCCC1 | 12
O=C1/C(=N\n2c(Cc3ccccc3)n[nH]c2=S)c2cc(Cl)ccc2N1CN1CCCCC1 | 13

System: Bacillus subtilis
Test: Antibacterial activity against Bacillus subtilis at 50 ug/ml
Format: functional
Details: read-out: DIZ

SMILES | zone of inhibition at 50 µg/mL [mm]
O=C1/C(=N\n2c(Cc3ccccc3)n[nH]c2=S)c2cc(Br)ccc2N1CN1CCOCC1 | 9
O=C1Nc2ccccc2/C1=N/n1c(Cc2ccccc2)n[nH]c1=S | 9
O=C1Nc2ccc(Cl)cc2/C1=N/n1c(Cc2ccccc2)n[nH]c1=S | 9
O=C1/C(=N\n2c(Cc3ccccc3)n[nH]c2=S)c2ccccc2N1CN1CCCCC1 | 9
O=C1/C(=N\n2c(Cc3ccccc3)n[nH]c2=S)c2cc(Cl)ccc2N1CN1CCCCC1 | 9

System: Candida albicans
Test: Antifungal activity against Candida albicans at 200 ug/ml
Format: functional
Details: read-out: DIZ

SMILES | zone of inhibition at 200 µg/mL [mm]
OC(Cn1cncn1)(Cn1cncn1)c1ccc(F)cc1F [FLUCONAZOLE] | 20
O=C1/C(=N\n2c(Cc3ccccc3)n[nH]c2=S)c2cc(Br)ccc2N1CN1CCOCC1 | 15
O=C1Nc2ccccc2/C1=N/n1c(Cc2ccccc2)n[nH]c1=S | 15
O=C1Nc2ccc(Cl)cc2/C1=N/n1c(Cc2ccccc2)n[nH]c1=S | 16
O=C1/C(=N\n2c(Cc3ccccc3)n[nH]c2=S)c2ccccc2N1CN1CCCCC1 | 16
O=C1/C(=N\n2c(Cc3ccccc3)n[nH]c2=S)c2cc(Cl)ccc2N1CN1CCCCC1 | 16

System: Candida albicans
Test: Antifungal activity against Candida albicans at 100 ug/ml
Format: functional
Details: read-out: DIZ

SMILES | zone of inhibition at 100 µg/mL [mm]
O=C1/C(=N\n2c(Cc3ccccc3)n[nH]c2=S)c2cc(Br)ccc2N1CN1CCOCC1 | 10
O=C1Nc2ccccc2/C1=N/n1c(Cc2ccccc2)n[nH]c1=S | 9
O=C1Nc2ccc(Cl)cc2/C1=N/n1c(Cc2ccccc2)n[nH]c1=S | 9
O=C1/C(=N\n2c(Cc3ccccc3)n[nH]c2=S)c2ccccc2N1CN1CCCCC1 | 10
O=C1/C(=N\n2c(Cc3ccccc3)n[nH]c2=S)c2cc(Cl)ccc2N1CN1CCCCC1 | 11

System: Candida albicans
Test: Antifungal activity against Candida albicans at 50 ug/ml
Format: functional
Details: read-out: DIZ

SMILES | zone of inhibition at 50 µg/mL [mm]
O=C1/C(=N\n2c(Cc3ccccc3)n[nH]c2=S)c2cc(Cl)ccc2N1CN1CCCCC1 | 9

System: Aspergillus niger
Test: Antifungal activity against Aspergillus niger at 100 ug/ml
Format: functional
Details: read-out: DIZ

SMILES | zone of inhibition at 100 µg/mL [mm]
O=C1/C(=N\n2c(Cc3ccccc3)n[nH]c2=S)c2cc(Br)ccc2N1CN1CCOCC1 | 9
O=C1Nc2ccccc2/C1=N/n1c(Cc2ccccc2)n[nH]c1=S | 9
O=C1Nc2ccc(Cl)cc2/C1=N/n1c(Cc2ccccc2)n[nH]c1=S | 9
O=C1/C(=N\n2c(Cc3ccccc3)n[nH]c2=S)c2ccccc2N1CN1CCCCC1 | 9
O=C1/C(=N\n2c(Cc3ccccc3)n[nH]c2=S)c2cc(Cl)ccc2N1CN1CCCCC1 | 9
